According to patent US5985824A, “Methods and compositions for treating cystic fibrosis” (priority 1997, dated 1999):

Tests used:
[1] = toxicity of DSG to C127-ΔF508-low cells; type: cell-based, murine; conditions: mouse, read-out: concentrations toxic to the cells
From the text: C127-ΔF508-low (mouse mammary tumor) is a recombinant cell line stably transfected with the cDNA encoding the mutant ΔF508-CFTR (Cheng et al. (1995), supra.; Marshall et al. (1994), J. Biol. Chem. 269: 2987-2995). […] C127-mock is a cell line that has been stably transfected with the backbone of the expression vector used to generate C127-ΔF508-low (Cheng et al. (1995), supra.). LLCPK1 -ΔF508 (pig kidney epithelial) is a recombinant cell line stably expressing low levels of the mutant ΔF508-CFTR protein (Marshall et al., supra.). The details of the generation, characterization and routine propagation of these cell lines has been described (Cheng et al. (1995), supra.; Marshall et al., supra.).
Cells were treated with up to 100 μg/ml of DSG for up to 72 h. Concentrations of DSG >50 μg/ml were toxic to most of the cell types tested. Since DSG is modified by polyamine oxidase present in fetal bovine serum (Tepper et al., supra.), cells were routinely replenished with fresh medium containing DSG and aminoguanidine every 24 h. As a control in some experiments, C127 cells were also treated with 5 mM sodium butyrate for 24 h. to enhance expression of ΔF508-CFTR (Cheng et al. (1995), supra.). As another control, cells were cultured at 23° C. for 24 to 48 h. to facilitate folding of the mutant ΔF508-CFTR at the ER.

ΔF508-CFTR (CFT1 cells) = assay: SPQ assay, cAMP-stimulated Cl- channel activity, CFT1 cells; type: cell-based, human
Method: The cAMP-dependent CFTR Cl^- channel activity was assessed using the halide-sensitive fluorophore 6-methoxy-N-(3-sulfopropyl)-quinolinium (SPQ) essentially as described previously (Cheng et al., (1995), supra.; Marshall et al., supra.). Briefly, the cells were treated with different amounts of DSG for the times specified. At the end of the treatment period, the cells were loaded with SPQ by hypotonic shock for 4 min at room temperature. SPQ fluorescence initially was quenched by incubating the cells for up to 30 min in a NaI buffer (135 mM NaI, 2.4 mM K2 HPO4, 0.6 mM KH2 PO4, 1 mM MgSO4, 1 mM CaSO4, 10 mM dextrose, and 10 mM N-2 hydroxyethylpiperazine-N'2-ethanesulfonic acid, pH 7.4). After measuring the baseline fluorescence (Fo) for 2 min., the NaI solution was replaced with one containing 135 mM NaNO3, and fluorescence was measured for another 16 min. […]
An increase in halide permeability is reflected by a more rapid increase in SPQ fluorescence. […] Differences in absolute levels reflect quantitative differences between groups in SPQ loading, size of cells, or number of cells studied. The data are presented as means± SE of fluorescence at time t (Ft) minus the baseline fluorescence (Fo, the average fluorescence measured in the presence of I^- for 2 min. before ion substitution) and are representative of results obtained under each condition. […]

hsp90 = conditions: read-out: kds, DSG-hsp complexes; cited from earlier work

Question: For `N=C(N)NCCCCCCC(=O)NC(O)C(=O)NCCCCNCCCN` (stereo not drawn) [DSG, deoxyspergualin], which MCC at 72 h [1] is on record?
Answer: > 50 µg/mL

Question: What about the “cAMP-stimulated Cl- channel activity, in words” value (ΔF508-CFTR (CFT1 cells)) of the same molecule?
Answer: very similar results

Question: And the Kd (hsp90)?
Answer: 4 to 5 µM
